Data reported in patent US6258790A, “Antisense modulation of integrin α4 expression” (Isis Pharmaceuticals, Inc., priority 1999, dated 2001).

Tested on: human integrin α4
Experiment: Inhibition of human integrin α4 protein levels by antisense oligonucleotides (LIPOFECTIN, flow cytometry with CD49d-FITC) in A375 melanoma cells
Type: cell-based
Set-up: % Inhib.: tested at 200 nM
Conditions: for inhibition (Example 11): Example 11 assay; for % Control (integrin α4 protein) / % Inhib (integrin α4 protein): Table 1, 200 nM oligonucleotide, 6 ug/ml LIPOFECTIN; for % CONTROL 48 hr / % INHIB 48 hr / % CONTROL 72 hr / % INHIB 72 HR: Table 2, A375
Excerpt: Integrin α4 protein levels can be quantitated in a variety of ways well known in the art, such as immunoprecipitation, Western blot analysis (immunoblotting), ELISA or fluorescence-activated cell sorting (FACS). Antibodies directed to integrin α4 can be identified and obtained from a variety of sources, such as the MSRS catalog of antibodies (Aerie Corporation, Birmingham, Mich.), or can be prepared via conventional antibody generation methods.
Target sites are indicated by nucleotide numbers, as given in the sequence source reference (GenBank accession no. L12002), to which the oligonucleotide binds. All compounds in Table 1 are 18 nucleotides in length, with a phosphorothioate backbone and a centered 10-base deoxynucleotide gap flanked by 2'-methoxyethoxy (2'MOE) wings. Human A375 melanoma cells (American Type Culture Collection, Manassas, Va.) were plated at 2000 cells/cm^2 two days before oligonucleotide treatment. Cells were treated with oligonucleotides at a dose of 200 nM oligonucleotide and 6 ug/ml LIPOFECTIN for four hours. Cells were incubated overnight and harvested with 2 mM EDTA in PBS. Cells were washed in 2% bovine serum albumin, 0.2% sodium azide in D-PBS at 4° C. Cells were centrifuged at 200×g, and the supernatant was decanted. […] Antibodies were incubated with the cells for 30 minutes at 4° C. in the dark, under gentle agitation. Cells were washed again as above and then resuspended in 0.3 ml of FacsFlow buffer with 0.5% formaldehyde. Cells were analyzed on Becton Dickinson FACScan. Results are expressed as percentage of control expression based on mean fluorescence intensity.
Cells were harvested with trypsin at 48 and 72 hours after oligonucleotide treatment and stained with 2 ug/ml CD49d-FITC as in the previous example.
Where backbones are mixed, linkages are shown as "s" for phosphorothioate (P=S or PS) and "o" for phosphodiester (P=O or PO). Where target region is indicated as `M62841,` oligonucleotides are targeted to the promotor region whose sequence is described in GenBank Accession No. M62841. Remaining oligonucleotides are targeted to the sequence described in Genbank Accession No. L12002 and their target sites on the L12002 sequence are indicated.
Target sites refer to nucleotide numbers on the target sequence (GenBank Accession No. L12002) to which the oligonucleotides hybridize.
Oligonucleotides were synthesized as "gapmers" consisting of a 9-nucleotide region of deoxynucleotides flanked by three 2'-O-methoxyethyl(2'-MOE) nucleotides on the 5' end and eight 2'-MOE nucleotides on the 3' end. 2'-MOE nucleotides are shown in bold in the table. Oligonucleotides were synthesized with phosphorothioate backbones throughout, and all cytosines are 5-methylcytosines.

[1] = Table 24, A375 cells, lipofectin, as Example 8

24453 (GCTTATTTTCATTCTTTA; chemistry not given here) [compound 24453]
inhibition (Example 11) (dose not stated): ≥ 40% | % Control (integrin α4 protein) (A375 cells): 47% | % CONTROL 48 hr (50 nM): 79% | % INHIB 48 hr (50 nM): 21% | % CONTROL 72 hr (50 nM): 78% | % INHIB 72 HR (50 nM): 22% | % CONTROL 48 hr (100 nM): 95% | % CONTROL 72 hr (100 nM): 93% | % CONTROL 48 hr (200 nM): 38% | % INHIB 48 hr (200 nM): 62% | % CONTROL 72 hr (200 nM): 64% | % INHIB 72 HR (200 nM): 36% | % CONTROL 48 hr (400 nM): 41% | % INHIB 48 hr (400 nM): 59% | % CONTROL 72 hr (400 nM): 58% | % INHIB 72 HR (400 nM): 42% | % Control (Table 6, 10 nM): 88% | % Inhib. (Table 6, 10 nM): 12% | % Control (Table 6, 30 nM): 90% | % Inhib. (Table 6, 30 nM): 10% | % Control (Table 6, 100 nM): 80% | % Inhib. (Table 6, 100 nM): 20% | % Control (Table 6, 300 nM): 43% | % Inhib. (Table 6, 300 nM (highest dose)): 57%

24475 (GCCCTTATATGAGAAACA; phosphorothioate, 2'-MOE/deoxy, further chemistry not given here) [compound 24475]
inhibition (Example 10) (Example 10 assay, dose not stated): ≥ 40% | % Control (integrin α4 protein) (A375 cells): 48% | % CONTROL 48 hr (50 nM): 60% | % INHIB 48 hr (50 nM): 40% | % CONTROL 72 hr (50 nM): 69% | % INHIB 72 HR (50 nM): 31% | % CONTROL 48 hr (100 nM): 31% | % INHIB 48 hr (100 nM): 69% | % CONTROL 72 hr (100 nM): 44% | % INHIB 72 HR (100 nM): 56% | % CONTROL 48 hr (200 nM): 30% | % INHIB 48 hr (200 nM): 70% | % CONTROL 48 hr (400 nM): 39% | % INHIB 48 hr (400 nM): 61% | % CONTROL 72 hr (400 nM): 52% | % INHIB 72 HR (400 nM): 48% | % Control (Table 4, 10 nM): 97% | % Control (Table 4, 30 nM): 73% | % Inhib. (Table 4, 30 nM): 27% | % Control (Table 4, 100 nM): 84% | % Inhib. (Table 4, 100 nM): 16% | % Control (Table 4, 300 nM): 55% | % Inhib. (Table 4, 300 nM (highest dose)): 45%

107254 (antisense TGCTTTAGTGTTTCTCTACC; chemistry not given here) [compound 107254]
% Control [1]: 33%

24455 (TCACATAATCTTGATAAC; chemistry not given here) [compound 24455]
% Control (integrin α4 protein) (A375 cells): 81% | % Inhib (integrin α4 protein) (A375 cells): 19%

24443 (CAAAGTTGCACGGGATGC; chemistry not given here) [compound 24443]
% Control (integrin α4 protein) (A375 cells): 63% | % Inhib (integrin α4 protein) (A375 cells): 37%

107234 (antisense CTTCCCAAGCCATGCGCTCT; chemistry not given here) [compound 107234]
% Control [1]: 47%

24472 (CTTGTCCTTAGCAAGACA; chemistry not given here) [compound 24472]
% Control (integrin α4 protein) (A375 cells): 65% | % Inhib (integrin α4 protein) (A375 cells): 35%

24452 (GGATCCATTTTCTCCTGG; chemistry not given here) [compound 24452]
% Control (integrin α4 protein) (A375 cells): 60% | % Inhib (integrin α4 protein) (A375 cells): 40%

24742 (TTTAGTGACAAAGACGTTAT; phosphorothioate, 2'-MOE, 5-methyl-C, further chemistry not given here) [compound 24742]
% Control (Table 4, 10 nM): 112% | % Control (Table 4, 30 nM): 107% | % Control (Table 4, 100 nM): 123% | % Control (Table 4, 300 nM): 128%

24446 (GCGCGCTCTCAGTGTCCA; chemistry not given here) [compound 24446]
% Control (integrin α4 protein) (A375 cells): 58% | % Inhib (integrin α4 protein) (A375 cells): 42%

107258 (antisense TTAAAGTGATAATGGTCCAC; chemistry not given here) [compound 107258]
% Control [1]: 39%

107237 (antisense CGCGCCTCGCTTCCCAAGCC; chemistry not given here) [compound 107237]
% Control [1]: 46%

107253 (antisense TCTTTGGCTGTATTATTACC; chemistry not given here) [compound 107253]
% Control [1]: 29%

24457 (TTATTTGTAGTTATATTG; chemistry not given here) [compound 24457]
% Control (integrin α4 protein) (A375 cells): 106%

24459 (GAAAATGACCAGCTCCGA; chemistry not given here) [compound 24459]
% Control (integrin α4 protein) (A375 cells): 61% | % Inhib (integrin α4 protein) (A375 cells): 39%

107244 (antisense AGGATAGATTTGTATTGTCT; chemistry not given here) [compound 107244]
% Control [1]: 37%

24476 (CAATTTGAAAGAAGTCCT; chemistry not given here) [compound 24476]
% Control (integrin α4 protein) (A375 cells): 99%

24466 (TTGTCAATGTCGCCAAGA; chemistry not given here) [compound 24466]
% Control (integrin α4 protein) (A375 cells): 64% | % Inhib (integrin α4 protein) (A375 cells): 36%

24744 (AGACGTTATGGCTATTCTCT; phosphorothioate, 2'-MOE, 5-methyl-C, further chemistry not given here) [compound 24744]
% Control (Table 4, 10 nM): 121% | % Control (Table 4, 30 nM): 110% | % Control (Table 4, 100 nM): 118% | % Control (Table 4, 300 nM): 118%

100025 (antisense CCCAGCACATCGGCTCTCGG; chemistry not given here) [compound 100025]
% Control [1]: 97% | % Inhib. [1]: 3%

24467 (TCATCTTCTTGTGGAGCT; chemistry not given here) [compound 24467]
% Control (integrin α4 protein) (A375 cells): 101%

24454 (TTCTTTTACTCAGTTCTG; chemistry not given here) [compound 24454]
% Control (integrin α4 protein) (A375 cells): 53% | % Inhib (integrin α4 protein) (A375 cells): 47%

24743 (GAAGGCCCCTGGGGAACATT; phosphorothioate, 2'-MOE, 5-methyl-C, further chemistry not given here) [compound 24743]
% Control (Table 4, 10 nM): 96% | % Control (Table 4, 30 nM): 121% | % Control (Table 4, 100 nM): 117% | % Control (Table 4, 300 nM): 105%

24468 (CCATCTGCACGGCCATTG; chemistry not given here) [compound 24468]
% Control (integrin α4 protein) (A375 cells): 72% | % Inhib (integrin α4 protein) (A375 cells): 28%

107257 (antisense TGAAATGAACCTCTGCCCAC; chemistry not given here) [compound 107257]
% Control [1]: 44%

24474 (ATCCATTTTCAACACAGT; chemistry not given here) [compound 24474]
% Control (integrin α4 protein) (A375 cells): 71% | % Inhib (integrin α4 protein) (A375 cells): 29%

24449 (GCACGTCTGGCCGGGATT; chemistry not given here) [compound 24449]
% Control (integrin α4 protein) (A375 cells): 61% | % Inhib (integrin α4 protein) (A375 cells): 39%

24473 (TCAGGGTGGCTTAAAGAA; chemistry not given here) [compound 24473]
inhibition (Example 11) (dose not stated): ≥ 40% | % Control (integrin α4 protein) (A375 cells): 53% | % CONTROL 48 hr (50 nM): 77% | % INHIB 48 hr (50 nM): 23% | % CONTROL 72 hr (50 nM): 85% | % INHIB 72 HR (50 nM): 35% | % CONTROL 48 hr (100 nM): 49% | % INHIB 48 hr (100 nM): 51% | % CONTROL 72 hr (100 nM): 77% | % INHIB 72 HR (100 nM): 23% | % CONTROL 48 hr (200 nM): 39% | % INHIB 48 hr (200 nM): 61% | % CONTROL 72 hr (200 nM): 61% | % INHIB 72 HR (200 nM): 39% | % CONTROL 48 hr (400 nM): 42% | % INHIB 48 hr (400 nM): 58% | % CONTROL 72 hr (400 nM): 56% | % INHIB 72 HR (400 nM): 44% | % Control (Table 6, 10 nM): 103% | % Control (Table 6, 30 nM): 92% | % Control (Table 6, 100 nM): 81% | % Inhib. (Table 6, 100 nM): 19% | % Control (Table 6, 300 nM): 47% | % Inhib. (Table 6, 300 nM (highest dose)): 53%

107233 (antisense ATGCGACGGTTGGCCAACGG; chemistry not given here) [compound 107233]
% Control [1]: 57% | % Inhib. [1]: 43%

26640 (CCACTGATTGTCTCTCTCTT; phosphorothioate, 2'-MOE/deoxy, further chemistry not given here) [compound 26640]
inhibition (Example 11) (dose not stated): ≥ 40% | % Control (Table 6, 10 nM): 91% | % Control (Table 6, 30 nM): 83% | % Inhib. (Table 6, 30 nM): 17% | % Control (Table 6, 100 nM): 62% | % Inhib. (Table 6, 100 nM): 38% | % Control (Table 6, 300 nM): 35% | % Inhib. (Table 6, 300 nM (highest dose)): 65%

24448 (ACTGAAGCGTTGGCGAGC; chemistry not given here) [compound 24448]
% Control (integrin α4 protein) (A375 cells): 55% | % Inhib (integrin α4 protein) (A375 cells): 45%
